According to patent US20210260102A1, “TUNABLE IMMUNE RESPONSIVE BIODEGRADABLE ARGININE-BASED POLY(ESTER AMIDE)S AND METHODS OF MAKING AND USING SAME” (Cornell University, priority 2018, published 2021):

What was measured:
[1] = neutral pH; cited from earlier work
RAW 264.7 cells [2] = test: NO production of macrophages (Griess reagent); format: cell-based, murine; conditions: CAM (LPS+IFN-γ), 24 h
RAW 264.7 cells [3] = test: Arginase activity assay of treated macrophages; conditions: 2 mg/mL, 24 h
Method: 4×10^5 RAW 264.7 cells in each well were incubated in 400 μL DMEM media contains 10% FBS in 24 well plates for 24 h. […] For CAM or AAM group, treatments contained either 100 U/mL recombinant mouse interferon-γ (IFN-γ, 1.25×10^7 U/mg, Shenandoah Biotechnology, PA) plus 100 ng/mL lipopolysaccharide (LPS, Sigma-Aldrich) or 20 ng/mL recombinant mouse interleukin-4 (IL-4, Shenandoah Biotechnology, PA) respectively to induce different activation phenotype. Resting Macrophages, CAM and AAM incubated in DMEM contains 5% FBS without treatments were used as controls.
The arginase activity assay is tested colorimetrically. The cells were washed with PBS and lysed by 200 μL 0.2% Triton X-100 in 20 mM Tris-HCl, pH 7.5 containing 20 g pepstatin A, 20 μg aprotinin and 20 μg leupeptin as protease inhibitors. After the cell was lysed, 200 μL 10 mM MnCl2 was added and the enzyme was activated for 10 minutes at 55° C. 100 μL aliquot of the activated lysate was mixed with 100 μL 0.5 M Arg and incubated at 37° C. for 1 h. […] After being cooled to room temperature, the absorbance of 200 μL mixture solution at 540 nm was tested in 96 well plates. […] The NO production and the arginase activity in three replicate wells of each condition were tested and the mean value was calculated with standard deviations.

| Compound | water solubility [1] [µg/mL] | NO production of CAM (RAW 264.7 cells [2]; 1 mg/mL) [µM] | NO production of CAM (RAW 264.7 cells [2]; 2 mg/mL) [µM] | arginase activity of CAM (RAW 264.7 cells [3]) [U] |
| --- | --- | --- | --- | --- |
| N-nitro-L-arginine [NOArg] | ~870 |  |  |  |
| N=C(N)NCCC[C@H](N)C(=O)O [Arg, L-arginine] |  | 42.5 ± 2.6 | 50.7 ± 1.1 | 17.9±0.7 |
